Data on 38 compounds can be found in publication PMC8972196, “A Set of Experimentally Validated Decoys for the Human CC Chemokine Receptor 7 (CCR7) Obtained by Virtual Screening” (Frontiers in Pharmacology, 2022).

This test has as its target T1, human CCR7 (Homo sapiens, UniProt P32248).
T1 construct: expressed in transfected cells
T1 sequence (P32248 25-378): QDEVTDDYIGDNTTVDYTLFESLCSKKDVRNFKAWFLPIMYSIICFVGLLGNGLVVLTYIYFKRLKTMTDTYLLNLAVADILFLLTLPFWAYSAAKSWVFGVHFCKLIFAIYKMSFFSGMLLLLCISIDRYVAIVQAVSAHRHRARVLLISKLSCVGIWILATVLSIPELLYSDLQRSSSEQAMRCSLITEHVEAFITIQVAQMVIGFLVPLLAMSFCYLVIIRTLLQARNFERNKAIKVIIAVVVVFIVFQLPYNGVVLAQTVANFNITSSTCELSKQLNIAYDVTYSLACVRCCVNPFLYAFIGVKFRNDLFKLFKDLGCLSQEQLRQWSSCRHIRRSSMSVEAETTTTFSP
The experiment in a line: CCL19-induced calcium mobilization assay, U87.CD4 cells expressing CCR7. It counts as cell-based. To be noted: for IC50: CCL19 induced calcium signaling, read-out: IC50 [μM] block CCL19 induced calcium signaling; for Decoy – 0 Active – 1: classification as decoy or active on CCR7. A digest of the protocol: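 U87.CD4 cells stably expressing human CCR7, CXCR2 or CCR5 were seeded at 20,000 cells/well and incubated overnight at 37°C and 5% CO2. Cells were then incubated for 45 min at room temperature in the dark before calcium responses were recorded. CCR7 responses were induced with CCL19 and CXCR2 responses with CXCL8.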

Molecules are shown by their SMILES.

Turning to `Cc1ccc(C(=O)N2CCC3(CC2)CCC3(C)O)cc1N1CCCC1=O` (stereo not shown) [C224, Cc1ccc(C(=O)N2CCC3(CC2)CCC3(C)O)cc1N1CCCC1=O], the IC50 – broadly, the concentration needed to halve the response being measured – is more than 50 µM and the “Decoy – 0 Active – 1” value was 0.
In the case of `O=C(Nc1nc2c(s1)C(=O)CC(C(=O)NC1CCCc3ccccc31)C2)c1ccncc1` (stereo not shown) [C225, O=C(Nc1nc2c(s1)C(=O)CC(C(=O)NC1CCCc3ccccc31)C2)c1ccncc1], the IC50 is more than 50 µM and the “Decoy – 0 Active – 1” value stood at 0.
On the same counts, the results for `O=C1CC(C(=O)NC2CCCc3ccccc32)Cc2nc(NC(=O)C3CCC3)sc21` (stereo not shown) [C226, O=C1CC(C(=O)NC2CCCc3ccccc32)Cc2nc(NC(=O)C3CCC3)sc21] are more than 50 µM and 0.
For the compound `O=C(NC1CCC(C(=O)N2CCCCC2)C1)NC1C2Cc3cc(F)ccc3C21` (stereo not shown) [C227, O=C(NC1CCC(C(=O)N2CCCCC2)C1)NC1C2Cc3cc(F)ccc3C21], the IC50 is more than 50 µM and the “Decoy – 0 Active – 1” value is recorded as 0.
The matching figures for `O=C1CC(C(=O)N2CCCC2c2ccccc2)CN1Cc1cccnc1` (stereo not shown) [C228, O=C1CC(C(=O)N2CCCC2c2ccccc2)CN1Cc1cccnc1]: more than 50 µM and 0.
`O=C1CC(C(=O)NCc2csc3c2CCCC3)C2(CCCC2)O1` (stereo not shown) [C229, O=C1CC(C(=O)NCc2csc3c2CCCC3)C2(CCCC2)O1]: the IC50 was more than 50 µM and the “Decoy – 0 Active – 1” value was determined as 0.
As for `O=C1CC(C(=O)N2CCCC2c2cccs2)CN1c1cccc2ccccc12` (stereo not shown) [C230, O=C1CC(C(=O)N2CCCC2c2cccs2)CN1c1cccc2ccccc12], the IC50 is more than 50 µM and the “Decoy – 0 Active – 1” value came out at 0.
For `O=C1CCC(C(=O)N2CCCC2c2ccc3c(c2)OCO3)N1` (stereo not shown) [C231, O=C1CCC(C(=O)N2CCCC2c2ccc3c(c2)OCO3)N1], the IC50 was more than 50 µM and the “Decoy – 0 Active – 1” value was 0.
On the same counts, the results for `CN(Cc1csc(-c2ccccc2)n1)C(=O)c1c[nH]c(=O)c(Cl)c1` [C232, CN(Cc1csc(-c2ccccc2)n1)C(=O)c1c[nH]c(=O)c(Cl)c1] are more than 50 µM and 0.
As for `O=C(CN(c1ccc(Br)cc1)S(=O)(=O)c1ccccc1)Nc1ccccc1C(=O)N1CCOCC1` [C233, c1ccc(cc1)S(=O)(=O)N(CC(=O)Nc2ccccc2C(=O)N3CCOCC3)c4ccc(cc4)Br], the IC50 is more than 50 µM and the “Decoy – 0 Active – 1” value is on record as 0.
As for `CN1CCN(C(=O)c2ccc(CN(c3ccccc3)S(=O)(=O)c3ccccc3)cc2)CC1` [C234, C[NH+]1CCN(CC1)C(=O)c2ccc(cc2)CN(c3ccccc3)S(=O)(=O)c4ccccc4], the IC50 was more than 50 µM and the “Decoy – 0 Active – 1” value is listed as 0.
With `COc1ccccc1NC(=O)CN(c1ccccc1)S(=O)(=O)c1ccc(OC)c(OC)c1` [C235, COc1ccccc1NC(=O)CN(c2ccccc2)S(=O)(=O)c3ccc(c(c3)OC)OC], the IC50 is more than 50 µM and the “Decoy – 0 Active – 1” value amounted to 0.
`Cc1ccc(S(=O)(=O)N(CC(=O)Nc2cccc([N+](=O)[O-])c2)Cc2ccc(F)cc2)cc1` [C236, Cc1ccc(cc1)S(=O)(=O)N(Cc2ccc(cc2)F)CC(=O)Nc3cccc(c3)[N+](=O)[O-]]: the IC50 is more than 50 µM and the “Decoy – 0 Active – 1” value is reported as 0.
`CC(C)c1ccc(S(=O)(=O)N2CCN(C)CC2c2ccccc2)cc1` (stereo not shown) [C237, CC(C)c1ccc(cc1)S(=O)(=O)N2CC[NH+](CC2c3ccccc3)C]: the IC50 was more than 50 µM and the “Decoy – 0 Active – 1” value was 0.
For `O=S(=O)(NCC(c1ccco1)N1CCc2ccccc21)c1ccc2c(c1)OCCO2` (stereo not shown) [C238, c1ccc2c(c1)CCN2C(CNS(=O)(=O)c3ccc4c(c3)OCCO4)c5ccco5], the IC50 was more than 50 µM and the “Decoy – 0 Active – 1” value is reported as 0.
As to `O=C(NCc1cccnc1)c1ccccc1NS(=O)(=O)c1ccc2c(c1)OCCO2` [C239, c1ccc(c(c1)C(=O)NCc2cccnc2)NS(=O)(=O)c3ccc4c(c3)OCCO4], the IC50 was more than 50 µM and the “Decoy – 0 Active – 1” value turned out to be 0.
The matching figures for `Cc1ccc(S(=O)(=O)N(C)c2ccccc2C(=O)NCc2ccco2)cc1` [C240, Cc1ccc(cc1)S(=O)(=O)N(C)c2ccccc2C(=O)NCc3ccco3]: more than 50 µM and 0.
For the compound `CCc1ccc(S(=O)(=O)NC2Cc3cc(C(=O)NC(C)C)nn3C2)cc1` (stereo not shown) [C241, CCc1ccc(cc1)S(=O)(=O)NC2Cc3cc(nn3C2)C(=O)NC(C)C], the IC50 is more than 50 µM and the “Decoy – 0 Active – 1” value is reported as 0.
For the compound `COc1ccc(S(=O)(=O)N(CC(=O)N2CCN(C)CC2)Cc2ccccc2)cc1C` [C242, Cc1cc(ccc1OC)S(=O)(=O)N(Cc2ccccc2)CC(=O)N3CC[NH+](CC3)C], the IC50 is more than 50 µM and the “Decoy – 0 Active – 1” value is recorded as 0.
Turning to `CC(C)(C)c1ccc(CN(Cc2ccccc2)Cc2nc(C(=O)N3CCOCC3)co2)cc1` [C243, CC(C)(C)c1ccc(cc1)C[NH+](Cc2ccccc2)Cc3nc(co3)C(=O)N4CCOCC4], the half-inhibitory concentration (IC50) was more than 50 µM and the “Decoy – 0 Active – 1” value is on record as 0.
With `Cc1ccc(S(=O)(=O)N(CC(O)CN2CCCCC2)c2ccccc2)cc1` (stereo not shown) [C244, Cc1ccc(cc1)S(=O)(=O)N(CC(C[NH+]2CCCCC2)O)c3ccccc3], the 50% inhibitory concentration (IC50) was more than 50 µM and the “Decoy – 0 Active – 1” value is on record as 0.
In the case of `COc1ccc(S(=O)(=O)N(CC(=O)Nc2cccc(OC)c2)c2ccccc2)cc1` [C245, COc1ccc(cc1)S(=O)(=O)N(CC(=O)Nc2cccc(c2)OC)c3ccccc3], the IC50 was more than 50 µM and the “Decoy – 0 Active – 1” value amounted to 0.
As for `O=S(=O)(c1cccc(F)c1)N1CC(c2cccnc2)C(c2nc(C3CCCC3)no2)C1` (stereo not shown) [C246, c1cc(cc(c1)S(=O)(=O)N2CC(C(C2)c3nc(no3)C4CCCC4)c5cccnc5)F], the IC50 is more than 50 µM and the “Decoy – 0 Active – 1” value is 0.
As for `CC(O)c1ccc(S(=O)(=O)NC(c2ccccc2)c2nccn2C)cc1` (stereo not shown) [C247, CC(c1ccc(cc1)S(=O)(=O)NC(c2ccccc2)c3nccn3C)O], the IC50 is more than 50 µM and the “Decoy – 0 Active – 1” value is on record as 0.
As to `COc1ccc(N(CC(O)CNCCC(C)C)S(=O)(=O)c2ccc(C)cc2)cc1` (stereo not shown) [C248, Cc1ccc(cc1)S(=O)(=O)N(CC(C[NH2+]CCC(C)C)O)c2ccc(cc2)OC], the IC50 is more than 50 µM and the “Decoy – 0 Active – 1” value is reported as 0.
As for `CCC(NS(=O)(=O)c1ccc(C)cc1)c1ccccc1OCC(=O)NC` (stereo not shown) [C249, CCC(c1ccccc1OCC(=O)NC)NS(=O)(=O)c2ccc(cc2)C], the IC50 is more than 50 µM and the “Decoy – 0 Active – 1” value was determined as 0.
On to `Cc1ccc(S(=O)(=O)N(CCC(=O)NC(C)CO)c2ccccc2)cc1` (stereo not shown) [C250, Cc1ccc(cc1)S(=O)(=O)N(CCC(=O)NC(C)CO)c2ccccc2], for which the IC50 is more than 50 µM and the “Decoy – 0 Active – 1” value is 0.
Turning to `COc1ccc(S(=O)(=O)Nc2ccccc2C(=O)N2CCOCC2)cc1Br` [C251, COc1ccc(cc1Br)S(=O)(=O)Nc2ccccc2C(=O)N3CCOCC3], the IC50 is more than 50 µM and the “Decoy – 0 Active – 1” value amounted to 0.
On the same counts, the results for `O=S(=O)(NC(c1ccccc1)c1ccccn1)c1ccc2c(c1)OCCCO2` (stereo not shown) [C252, c1ccc(cc1)C(c2ccccn2)NS(=O)(=O)c3ccc4c(c3)OCCCO4] are more than 50 µM and 0.
With `COc1cccc(N(CC(=O)N2CCC(C(N)=O)CC2)S(=O)(=O)c2ccc(C)cc2)c1` [C253, Cc1ccc(cc1)S(=O)(=O)N(CC(=O)N2CCC(CC2)C(=O)N)c3cccc(c3)OC], the IC50 was more than 50 µM and the “Decoy – 0 Active – 1” value is 0.
On the same counts, the results for `CCCc1ccc(S(=O)(=O)NC2COc3ccc(OC)cc3C2)cc1` (stereo not shown) [C254, CCCc1ccc(cc1)S(=O)(=O)NC2Cc3cc(ccc3OC2)OC] are more than 50 µM and 0.
Consider `COc1cccc(N(CC(=O)Nc2cccc([N+](=O)[O-])c2)S(=O)(=O)c2ccc(C)cc2)c1` [C255, Cc1ccc(cc1)S(=O)(=O)N(CC(=O)Nc2cccc(c2)[N+](=O)[O-])c3cccc(c3)OC], for which the IC50 is more than 50 µM and the “Decoy – 0 Active – 1” value was found to be 0.
The matching figures for `O=S(=O)(NC(c1cccnc1)C1CCOCC1)c1ccc2c(c1)CCO2` (stereo not shown) [C256, c1cc(cnc1)C(C2CCOCC2)NS(=O)(=O)c3ccc4c(c3)CCO4]: more than 50 µM and 0.
Take `CC1CC(C)CN(C(=O)c2ccccc2NS(=O)(=O)c2ccc3[nH]c(=O)[nH]c3c2)C1` (stereo not shown) [C257, CC1CC(CN(C1)C(=O)c2ccccc2NS(=O)(=O)c3ccc4c(c3)[nH]c(=O)[nH]4)C]: the IC50 is more than 50 µM and the “Decoy – 0 Active – 1” value is 0.
`Cc1ccc(S(=O)(=O)N(CCC(N)=O)Cc2ccccc2)cc1` [C258, Cc1ccc(cc1)S(=O)(=O)N(CCC(=O)N)Cc2ccccc2]: the IC50 is more than 50 µM and the “Decoy – 0 Active – 1” value is listed as 0.
Take `COc1ccc(S(=O)(=O)N(CC(=O)NCc2ccccn2)Cc2ccccc2)cc1` [C259, COc1ccc(cc1)S(=O)(=O)N(Cc2ccccc2)CC(=O)NCc3ccccn3]: the IC50 was more than 50 µM and the “Decoy – 0 Active – 1” value turned out to be 0.
As for `COc1ccc(S(=O)(=O)Nc2ccccc2C(=O)N2CCOCC2)cc1C` [C260, Cc1cc(ccc1OC)S(=O)(=O)Nc2ccccc2C(=O)N3CCOCC3], the IC50 was more than 50 µM and the “Decoy – 0 Active – 1” value is 0.
As for `CCNC(=O)c1ccc(CNS(=O)(=O)c2ccc3c(c2)CCC3)cc1` [C261, CCNC(=O)c1ccc(cc1)CNS(=O)(=O)c2ccc3c(c2)CCC3], the IC50 is more than 50 µM and the “Decoy – 0 Active – 1” value was 0.
